The experiment concerns human JAK1. In words: In vitro JAK kinase assay (HTRF), JAK1. Format: biochemical. The following applies: ratio of JAK2 IC50 to JAK1 IC50 at 1 mM ATP. The procedure: Compounds herein were tested for inhibitory activity of JAK targets according to the following in vitro assay described in Park et al., Analytical Biochemistry 1999, 269, 94-104. The catalytic domains of human JAK1 (a.a. 837-1142), JAK2 (a.a. 828-1132) and JAK3 (a.a. 781-1124) were expressed using baculovirus in insect cells and purified. The catalytic activity of JAK1, JAK2 or JAK3 was assayed by measuring the phosphorylation of a biotinylated peptide. The phosphorylated peptide was detected by homogenous time resolved fluorescence (HTRF). IC50s of compounds were measured for each kinase in the 40 μL reactions that contain the enzyme, ATP and 500 nM peptide in 50 mM Tris (pH 7.8) buffer with 100 mM NaCl, 5 mM DTT, and 0.1 mg/mL (0.01%) BSA. For the 1 mM IC50 measurements, ATP concentration in the reactions was 1 mM. Reactions were carried out at room temperature for 1 hour and then stopped with 20 μL 45 mM EDTA, 300 nM SA-APC, 6 nM Eu-Py20 in assay buffer (Perkin Elmer, Boston, Mass.). Binding to the Europium labeled antibody took place for 40 minutes and HTRF signal was measured on a PHERA star plate reader (BMG, Cary, N.C.). The Example compounds were each tested in the Example A assay (see Table 1 for data for the compounds of the examples as tested by the assay of Example A at 1 mM ATP).

In the case of `CCOC(=O)N1CCC[C@H](n2c([C@@H](C)O)nc3cnc4ccsc4c32)C1` [Example 50, Ethyl(3S)-3-{2-[(1R)-1-hydroxyethyl]-1H-imidazo[4,5-d]thieno[3,2-b]pyridin-1-yl}piperidine-1-carboxylate], the JAK2/JAK1 is more than 10. The value for `C[C@@H](O)c1nc2cnc3ccsc3c2n1C1CCC(O)(CC#N)CC1` (single isomer, unassigned) [24 (first peak)] was more than 10; that for “((1R,2R,4S)-2-Hydroxy-4-{2-[(1R)-1-hydroxyethyl]-1H-imidazo[4,5-d]thieno[3,2-b]pyridin-1-yl}cyclohexyl)acetonitrile and ((1S,2S,4R)-2-hydroxy-4-{2-[(1R)-1-hydroxyethyl]-1H-imidazo[4,5-d]thieno[3,2-b]pyridin-1-yl}cyclohexyl)acetonitrile [36 (second peak)]” was more than 10; that for `C[C@@H](O)c1nc2cnc3ccsc3c2n1[C@H]1CC[C@H](CNS(C)(=O)=O)CC1` [Example 80, N-[(trans-4-{2-[(1R)-1-Hydroxyethyl]-1H-imidazo[4,5-d]thieno[3,2-b]pyridin-1-yl}cyclohexyl)methyl]methanesulfonamide] was more than 10. The value for `C[C@@H](O)c1nc2cnc3ccsc3c2n1[C@H]1CCCN(C(=O)CCc2ccccc2)C1` [Example 57] was more than 10. Take `C[C@@H](O)c1nc2cnc3ccsc3c2n1[C@H]1CC[C@H](CNC(=O)OC2CCOC2)CC1` (stereo partly drawn) [Example 85, Tetrahydrofuran-3-yl [(trans-4-{2-[(1R)-1-hydroxyethyl]-1H-imidazo[4,5-d]thieno[3,2-b]pyridin-1-yl}cyclohexyl)methyl]carbamate]: the JAK2/JAK1 is more than 10. The value for `CS(=O)(=O)NCc1nc2cnc3ccsc3c2n1[C@H]1CC[C@H](CC#N)CC1` [Example 18, N-({1-[trans-4-(Cyanomethyl)cyclohexyl]-1H-imidazo[4,5-d]thieno[3,2-b]pyridin-2-yl}methyl)methanesulfonamide] was more than 10; that for `C[C@@H](O)c1nc2cnc3ccsc3c2n1[C@H]1CCCN(C(=O)CCc2cn[nH]c2)C1` [Example 53, (1R)-1-(1-{(3S)-1-[3-(1H-Pyrazol-4-yl)propanoyl]piperidin-3-yl}-1H-imidazo[4,5-d]thieno[3,2-b]pyridin-2-yl)ethanol] was more than 10; that for `N#CCC1CCC(CO)(n2cnc3cnc4ccsc4c32)CC1` (single isomer, unassigned) [72 (second peak), [4-(Hydroxymethyl)-4-(1H-imidazo[4,5-d]thieno[3,2-b]pyridin-1-yl)cyclohexyl]acetonitrile] was more than 5. The value for “((1R,2S,4S)-2-Hydroxy-4-{2-[(1R)-1-hydroxyethyl]-1H-imidazo[4,5-d]thieno[3,2-b]pyridin-1-yl}cyclohexyl)acetonitrile trifluoacetate and ((1S,2R,4R)-2-hydroxy-4-{2-[(1R)-1-hydroxyethyl]-1H-imidazo[4,5-d]thieno[3,2-b]pyridin-1-yl}cyclohexyl)acetonitrile trifluoacetate [37 (first peak)]” was more than 10; that for `N#CC[C@H]1CC[C@H](n2c(C3CC3)nc3cnc4ccsc4c32)CC1` [Example 26, [trans-4-(2-Cyclopropyl-1H-imidazo[4,5-d]thieno[3,2-b]pyridin-1-yl)cyclohexyl]acetonitrile] was more than 10.

As for `C[C@@H](O)c1nc2cnc3ccsc3c2n1[C@H]1CC[C@@H](n2cncn2)CC1` [Example 6, (1R)-1-{1-[cis-4-(1H-1,2,4-Triazol-1-yl)cyclohexyl]-1H-imidazo[4,5-d]thieno[3,2-b]pyridin-2-yl}ethanol], the JAK2/JAK1 is more than 6. As for `C[C@@H](O)c1nc2cnc3ccsc3c2n1[C@H]1CC[C@H](CNC(=O)N(C)C)CC1` [Example 81, N′-[(trans-4-{2-[(1R)-1-Hydroxyethyl]-1H-imidazo[4,5-d]thieno[3,2-b]pyridin-1-yl}cyclohexyl)methyl]-N,N-dimethylurea], the JAK2/JAK1 is more than 10. In the case of `CC(C)c1nc2cnc3ccsc3c2n1[C@H]1CC[C@H](CC#N)CC1` [Example 27, [trans-4-(2-Isopropyl-1H-imidazo[4,5-d]thieno[3,2-b]pyridin-1-yl)cyclohexyl]acetonitrile], the JAK2/JAK1 is more than 10.

Turning to `C[C@@H](O)c1nc2cnc3ccsc3c2n1C1CCN(CC#N)CC1.O=C(O)C(F)(F)F` [Example 61, (4-{2-[(1R)-1-Hydroxyethyl]-1H-imidazo[4,5-d]thieno[3,2-b]pyridin-1-yl}piperidin-1-yl)acetonitrile trifluoroacetate], the JAK2/JAK1 is more than 10. To `C[C@@H](O)c1nc2cnc3ccsc3c2n1[C@H]1CCCN(C(=O)CCc2cccnc2)C1` [Example 54, (1R)-1-{1-[(3S)-1-(3-Pyridin-3-ylpropanoyl)piperidin-3-yl]-1H-imidazo[4,5-d]thieno[3,2-b]pyridin-2-yl}ethanol] belongs more than 10. The value for `C[C@@H](O)c1nc2cnc3ccsc3c2n1C1CCC(NCCC#N)CC1` (single isomer, unassigned) [30 (second peak)] was more than 10.

Consider `C[C@@H](O)c1nc2cnc3ccsc3c2n1[C@H]1CCCN(C(=O)CCC#N)C1` [Example 58, 4-((3S)-3-{2-[(1R)-1-Hydroxyethyl]-1H-imidazo[4,5-d]thieno[3,2-b]pyridin-1-yl}piperidin-1-yl)-4-oxobutanenitrile], for which the JAK2/JAK1 was more than 10. The value for `C[C@@H](O)c1nc2cnc3ccsc3c2n1[C@H]1CCN(CCCCC#N)C1` [Example 66, 5-((3S)-3-{2-[(1R)-1-Hydroxyethyl]-1H-imidazo[4,5-d]thieno[3,2-b]pyridin-1-yl}pyrrolidin-1-yl)pentanenitrile] was more than 10; that for `C[C@@H](O)c1nc2cnc3ccsc3c2n1C1CCCCC1` [Example 13, (1R)-1-(1-Cyclohexyl-1H-imidazo[4,5-d]thieno[3,2-b]pyridin-2-yl)ethanol] was more than 10; that for `C[C@@H](O)c1nc2cnc3ccsc3c2n1[C@H]1CC[C@H](CC#N)CC1` [Example 2, (trans-4-{2-[(1R)-1-Hydroxyethyl]-1H-imidazo[4,5-d]thieno[3,2-b]pyridin-1-yl}cyclohexyl)acetonitrile] was more than 10. The value for `C[C@@H](O)c1nc2cnc3ccsc3c2n1[C@H]1CCCN(C(=O)CCCC#N)C1` [Example 59, 5-((3S)-3-{2-[(1R)-1-Hydroxyethyl]-1H-imidazo[4,5-d]thieno[3,2-b]pyridin-1-yl}piperidin-1-yl)-5-oxopentanenitrile] was more than 10; that for “[(1R,2S,4S)-4-(2-Ethyl-1H-imidazo[4,5-d]thieno[3,2-b]pyridin-1-yl)-2-hydroxycyclohexyl]acetonitrile and [(1S,2R,4R)-4-(2-ethyl-1H-imidazo[4,5-d]thieno[3,2-b]pyridin-1-yl)-2-hydroxycyclohexyl]acetonitrile [40 (first peak)]” was more than 10; that for `C[C@@H](O)c1nc2cnc3ccsc3c2n1C1CCN(CC(F)(F)F)CC1` [Example 15, (1R)-1-{1-[1-(2,2,2-Trifluoroethyl)piperidin-4-yl]-1H-imidazo[4,5-d]thieno[3,2-b]pyridin-2-yl}ethanol] was more than 9.

Values taken from US9908895B2, “Tricyclic fused thiophene derivatives as JAK inhibitors” (Incyte Corporation, priority 2012, dated 2018).
